Reference: patent US20040033517A1, “Compositions and methods relating to endothelial cell signaling using the protease activated receptor (PAR1)” (priority 2002, published 2004)
Read-outs that look alike come from different tables or passages of the source. Ends that are not written are not given here.

Experiments:
[1] = tested on: thrombin-mediated PAR1 signaling; details: 100 nM hirudin; M. Riewald et al., Blood 97: 3109, 2001; cited from earlier work
[2] = tested on: human umbilical vein endothelial cells HUVEC-C; format: cell-based
Text: Microarray Analysis. […] Total RNA was isolated followed by reverse transcription. Purified double stranded cDNA was in vitro transcribed in the presence of biotinylated dUTP and dCTP, fragmented cRNA was hybridized to the HG-U95Av2 array (Affymetrix, Santa Clara, Calif.), followed by staining with streptavidin-phycoerythrin. Arrays were scanned and analyzed using GeneChip3.1 software. […] An average fold-induction for the three independent experiments was obtained by calculating the means of the logarithm of the individual fold-increases for each agonist.

[3] = HUVEC-C, 90 min, genes represented in FIG. 2 A-C
[4] = HUVEC-C, 90 min, higher variability, PAR1 enhanced (<1.3 fold with PAR2 agonist)
[5] = HUVEC-C, 90 min, higher variability, PAR2 enhanced (<1.3 fold with PAR1 agonist)
[6] = HUVEC-C, 90 min, higher variability, genes not induced by APC (<1.3 fold with APC)

hirudin
Block of cell surface thrombin-mediated PAR1 signaling [1]: block all cell surface thrombin-mediated PAR1 signaling

SLIGRL [PAR2, SLIGRL]
Average fold induction, BIRC3 U45878 HUMAN INHIBITOR OF APOPTOSIS PROTEIN (IAP) 1 [2]: 1.41 fold
Average fold induction, NAB1 AF045451 NGFIA-BINDING PROTEIN [2]: 1.38 fold
Average Induction, A1288757 qm11h01.x1 Homo sapiens cDNA [2, 3]: 2.3 fold
Average Induction, A1670788 tz10c02.x1 Homo sapiens cDNA [2, 3]: 1.4 fold
Average Induction, A1985272 ws06b05.x1 Homo sapiens cDNA [2, 3]: 1.4 fold
Average Induction, A8022718 Homo sapiens m.RNA for DEPP (decidual protein induced by progesterone) [2, 3]: 2.0 fold
Average Induction, AB004066 Homo sapiens mRNA for DEC1 [2, 3]: 1.3 fold
Average Induction, AB014569 Homo sapiens mRNA for K1AA0669 protein [2, 3]: 2.0 fold
Average Induction, AF017786 Homo sapiens phosphatidic acid phosphohydrolase homolog (Dri42) [2, 3]: 1.6 fold
Average Induction, AF022375 Homo sapiens vascular endothelial growth factor mRNA [2, 3]: 1.3 fold
Average Induction, AF039843 Homo sapiens Sprouty 2 (SPRY2) mRNA [2, 3]: 1.8 fold
Average Induction, AF045451 Homo sapiens transcriptional regulatory protein p54 [2, 3]: 1.4 fold
Average Induction, AF050110 Homo sapiens TGFb inducible early protein and early growth response protein alpha genes [2, 3]: 1.4 fold
Average Induction, AF054182 Homo sapiens mitochondrial processing peptidase beta-subunit mRNA [2, 3]: 1.3 fold
Average Induction, AF068197 Homo sapiens BCE-1 mRNA [2, 3]: 1.8 fold
Average Induction, AF078077 Homo sapiens growth arrest and DNA-damage-inducible protein GADD45beta [2, 3]: 1.3 fold
Average Induction, AJ005821 Homo sapiens mRNA for X-like 1 protein [2, 3]: 1.6 fold
Average Induction, AL023584 Human DNA sequence from clone 67K17 on chromosome 6q24.1-24.3. [2, 3]: 2.0 fold
Average Induction, AL031432 Human DNA sequence from clone 465N24 on chromosome 1p35.1-36.13. [2, 3]: 2.6 fold
Average Induction, AL050078 Homo sapiens mRNA; cDNA DKFZp566G0746 [2, 3]: 1.6 fold
Average Induction, AL096858 Novel human gene mapping to chomosome 1 [2, 3]: 1.5 fold
Average Induction, Cluster Incl M22489 Human bone morphogenetic protein 2A (BMP-2A) [2, 3]: 2.9 fold
Average Induction, Cluster Incl U12767 Human mitogen induced nuclear orphan receptor (MINOR) [2, 3]: 3.4 fold
Average Induction, D15050 Human mRNA for transcription factor AREB6 [2, 3]: 1.7 fold
Average Induction, D50917 Human mRNA for KIAA0127 gene [2, 3]: 1.3 fold
Average Induction, D78579 Homo sapiens mRNA for neuron derived orphan receptor [2, 3]: 1.4 fold
Average Induction, D86181 Homo sapiens DNA for galactocerebrosidase [2, 3]: 1.5 fold
Average Induction, Guanine Nucleotide Exchange Factor 2 [2, 3]: 1.4 fold
Average Induction, J02931 Human placental tissue factor (two forms) mRNA [2, 3]: 2.7 fold
Average Induction, J04076 Human early growth response 2 protein (EGR2) mRNA [2, 3]: 2.0 fold
Average Induction, J04111 Human c-jun proto oncogene (JUN) [2, 3]: 1.5 fold
Average Induction, L05072 Homo sapiens interferon regulatory factor 1 gene [2, 3]: 2.0 fold
Average Induction, L19871 Human activating transcription factor 3 (ATF3) [2, 3]: 2.6 fold
Average Induction, L43821 Homo sapiens enhancer of filamentation (HEF1) mRNA [2, 3]: 1.2 fold
Average Induction, M22489/FEATURE Human bone morphogenetic protein 2A (BMP-2A) [2, 3]: 3.2 fold
Average Induction, M26683 Human interferon gamma treatment inducible mRNA [2, 3]: 1.0 fold
Average Induction, M28211 Homo sapiens GTP-binding protein (RAB4) mRNA [2, 3]: 2.7 fold
Average Induction, M28225 Human JE gene encoding a monocyte secretory protein [= MCP-1] [2, 3]: 1.1 fold
Average Induction, M29039 Human transactivator (jun-B) gene [2, 3]: 2.8 fold
Average Induction, M30474 Human kidney gamma-glutamyl transpeptidase type II mRNA [2, 3]: 2.1 fold
Average Induction, M31516 Human decay-accelerating factor mRNA [2, 3]: 1.9 fold
Average Induction, M36820 Human cytokine (GRO-beta) mRNA [2, 3]: 1.6 fold
Average Induction, M59465 Human tumor necrosis factor alpha inducible protein A20 mRNA [2, 3]: 1.3 fold
Average Induction, M60278 Human heparin-binding EGF-like growth factor mRNA [2, 3]: 3.9 fold
Average Induction, M60721 Human homeobox gene [2, 3]: 3.7 fold
Average Induction, M69043 Homo sapiens MAD-3 mRNA encoding 1kB-like activity [2, 3]: 1.4 fold
Average Induction, M92843 H.sapiens zinc finger transcriptional regulator mRNA [2, 3]: 3.4 fold
Average Induction, S81439 EGR alpha=early growth response gene alpha [2, 3]: 1.4 fold
Average Induction, S81914 IEX-1=radiation-inducible immediate-early gene [2, 3]: 1.2 fold
Average Induction, U04636 Human cyclooxygenase-2 (hCox-2) gene [2, 3]: 1.3 fold
Average Induction, U07802 Human Tis1 1d gene [2, 3]: 1.6 fold
Average Induction, U08015 Human NF-ATc mRNA [2, 3]: 2.0 fold
Average Induction, U12767/FEATURE Human mitogen induced nuclear orphan receptor (MINOR) [2, 3]: 3.3 fold
Average Induction, U15932 Human dual-specificity protein phosphatase [2, 3]: 3.3 fold
Average Induction, U25997 Homo sapiens stanniocalcin precursor (STC) mRNA [2, 3]: 1.4 fold
Average Induction, U43142 Human vascular endothelial growth factor related protein VRP [2, 3]: 1.9 fold
Average Induction, U59863 Human TRAF-interacting protein I-TRAF mRNA [2, 3]: 1.1 fold
Average Induction, U75697 Human transcription regulator RPD3-2B mRNA [2, 3]: 2.6 fold
Average Induction, U79259 Human clone 23945 mRNA [2, 3]: 1.7 fold
Average Induction, U81607 Homo sapiens gravin mRNA [2, 3]: 1.3 fold
Average Induction, W27545 32c4 Homo sapiens cDNA [2, 3]: 1.2 fold
Average Induction, X51345 Human jun-B mRNA for JUN-B protein [2, 3]: 1.8 fold
Average Induction, X63741 H.sapiens pilot mRNA [2, 3]: 3.0 fold
Average Induction, X68277 H.sapiens CL 100 mRNA for protein tyrosine phosphatase [2, 3]: 2.8 fold
Average Induction, X75918 H.sapiens mRNA for NOT [2, 3]: 3.3 fold
Average Induction, X89066 H.sapiens mRNA for TRPC1 protein [2, 3]: 2.2 fold
Average Induction, X94216 H.sapiens mRNA for VEGF-C protein [2, 3]: 2.1 fold
Average Induction, Y00630 Human mRNA for Arg-Serpin (plasminogen activator-inhibitor 2, PAI-2) [2, 3]: 1.7 fold
Average Induction, Z25821 H.sapiens gene for mitochondrial dodecenoyl-CoA delta-isomerase [2, 3]: 1.7 fold
Average Induction, Z48054 H.sapiens mRNA for peroxisomal targeting signal 1 (SKL type) receptor [2, 3]: 1.9 fold
Average Induction, L13740 Human TR3 orphan receptor mRNA ([2]; HUVEC-C, 90 min, genes represented in FIG. 2 A-C, first probe set): 5.4 fold
Average Induction, L13740 Human TR3 orphan receptor mRNA ([2]; HUVEC-C, 90 min, genes represented in FIG. 2 A-C, second probe set): 5.4 fold
Average Induction, A1186701 qe82d12.x1 Homo sapiens cDNA [2, 4]: 1.1 fold
Average Induction, A1953789 wx69d10.x1 Homo sapiens cDNA [2, 4]: 0.9 fold
Average Induction, AF024710 Homo sapiens vascular endothelial growth factor (VEGF) [2, 4]: 1.1 fold
Average Induction, AL035297 H.sapiens gene from PAC 747L4 [2, 4]: 1.0 fold
Average Induction, M22299 Human T-plastin polypeptide mRNA [2, 4]: 1.2 fold
Average Induction, U35735 Human RACH1 (RACH1) mRNA [2, 4]: 1.1 fold
Average Induction, U87460 Human putative endothelin receptor type B-like protein mRNA [2, 4]: 0.9 fold
Average Induction, A1038821 ox96d03.x1 Homo sapiens cDNA [2, 5]: 2.0 fold
Average Induction, AC004475 Homo sapiens chromosome 19, cosmid F23858 [2, 5]: 1.4 fold
Average Induction, AL049354 Homo sapiens mRNA; cDNA DKFZp566E183 [2, 5]: 1.3 fold
Average Induction, L38696 Homo sapiens autoantigen p542 mRNA [2, 5]: 1.3 fold
Average Induction, U27655 Human RGP3 mRNA [2, 5]: 1.5 fold
Average Induction, U53831 Homo sapiens interferon regulatory factor 7B [2, 5]: 1.5 fold
Average Induction, U58334 Human Bcl2, p53 binding protein Bbp/53BP2 (BBP/53BP2) mRNA [2, 5]: 1.5 fold
Average Induction, U65093 Human msg1-related gene 1 (mrg1) mRNA [2, 5]: 1.7 fold
Average Induction, W26851 17b12 Homo sapiens cDNA [2, 5]: 1.6 fold
Average Induction, Y13115 Homo sapiens mRNA for serine/threonine protein kinase SAK [2, 5]: 1.6 fold
Average Induction, Z25821 H.sapiens gene for mitochondrial dodecenoyl-CoA delta-isomerase [2, 5]: 1.7 fold
Average Induction, AB028069 Homo sapiens mRNA for activator of S phase Kinase [2, 6]: 2.0 fold
Average Induction, D38537 Human mRNA for protoporphyrinogen oxidase [2, 6]: 1.6 fold
Average Induction, M83667 Human NF-IL6-beta protein [2, 6]: 1.3 fold
Average Induction, U78082 Human RNA polymerase transcriptional regulation mediator (h-MED6) mRNA [2, 6]: 1.3 fold
Average Induction, U85267 Homo sapiens down syndrome candidate region 1 (DSCR1) gene [2, 6]: 2.0 fold
